Results from patent US20200392084A1 (priority 2017, published 2020).
Entries after “also recorded” stand apart in the source; their conditions may differ. Like-named read-outs stand apart in the source and are kept apart here.

What was measured:
[1] = Stability assessment of diethylamine salt (Example 6); format: physicochemical
[2] = for hygroscopicity: Example 4; for moisture absorbed: at/up to 95% RH
[3] = 50° C./75% RH, t=5 days
[4] = at 90% RH, 25° C.; listed as salt from diethylamine
[5] = slurried in deionised water, ambient temperature, ca. 24 hrs
[6] = H2O/acetone, ca. 12 hrs
[7] = Forced degradation studies (Example 7)
[8] = 25° C./60% RH, 1 month (Day 35)
[9] = 25° C./60% RH, 3 months (Day 96)
[10] = 40° C./75% RH, 1 month (Day 35)
[11] = 40° C./75% RH, 3 months (Day 96)
[12] = Hydrolytic (humidity), 55° C./75% RH, solid state, 8 days
[13] = Hydrolytic (humidity), 55° C./75% RH, solid state, 14 days
[14] = Hydrolytic, Acid, 1N HCl, 55° C., 8 days
[15] = Hydrolytic, Acid, 1N HCl, 55° C., 14 days
[16] = Hydrolytic, Base, 1N NaOH, 55° C., 8 days
[17] = Hydrolytic, Base, 1N NaOH, 55° C., 14 days
[18] = Oxidative, 3% H2O2, ambient temperature, 8 days
[19] = Photolytic Control (dark control in photochamber), 2X ICH
[20] = Photolytic Control (dark control in photochamber), 3X ICH
[21] = Photolytic, photochamber 25° C., solid state, 2X ICH
[22] = Photolytic, photochamber 25° C., solid state, 3X ICH
[23] = Solution Control (water, 55° C.), 8 days
[24] = Solution Control (water, 55° C.), 14 days
[25] = Solution Control (water, ambient), 8 days
[26] = Solution Control (water, ambient), 14 days
[27] = Thermolytic, 85° C., ambient humidity, solid state, 8 days
[28] = Thermolytic, 85° C., ambient humidity, solid state, 14 days

Molecule: CCNCC.O=C(O)c1cc(/N=N/c2ccc(S(=O)(=O)Nc3ccccn3)cc2)ccc1O [diethylamine salt Form A, sulfasalazine diethylamine salt Form A]
- Appearance [1, 8]: Dark Orange
- Assay (Anhydrous, Solvent Free) [1, 8]: 97.2% (w/w %)
- Total Impurities [1, 8]: 0.87%
- Water Content [1, 8]: 0.8% (w/w %)
- XRPD (Conforms to Form A) [1, 8]: Conforms to
- Appearance [1, 9]: Dark Orange
- Assay (Anhydrous, Solvent Free) [1, 9]: 95.9% (w/w %)
- Total Impurities [1, 9]: 0.76%
- Water Content [1, 9]: 0.7% (w/w %)
- XRPD (Conforms to Form A) [1, 9]: Conforms to
- Appearance [1, 10]: Dark Orange
- Assay (Anhydrous, Solvent Free) [1, 10]: 97.9% (w/w %)
- Total Impurities [1, 10]: 0.87%
- Water Content [1, 10]: 1.1% (w/w %)
- XRPD (Conforms to Form A) [1, 10]: Conforms to
- Appearance [1, 11]: Dark Orange
- Assay (Anhydrous, Solvent Free) [1, 11]: 96.5% (w/w %)
- Total Impurities [1, 11]: 0.77%
- Water Content [1, 11]: 1.1% (w/w %)
- XRPD (Conforms to Form A) [1, 11]: Conforms to
- Appearance ([1]; T = 0 (Day 0)): Dark Orange
- Assay (Anhydrous, Solvent Free) ([1]; T = 0 (Day 0)): 99.6% (w/w %)
- Total Impurities ([1]; T = 0 (Day 0)): 0.73%
- Water Content ([1]; T = 0 (Day 0)): 0.4% (w/w %)
- XRPD (Conforms to Form A) ([1]; T = 0 (Day 0)): Conforms to
- hygroscopicity [2]: slightly hygroscopic
- moisture absorbed [2]: more than 1 wt %
- stability [3]: no evidence of degradation

Molecule: NC(CO)(CO)CO.O=C(O)c1cc(/N=N/c2ccc(S(=O)(=O)Nc3ccccn3)cc2)ccc1O [tromethamine salt Form A, sulfasalazine tromethamine (1:1) salt form (Form A)]
- hygroscopicity [2]: hygroscopic
- moisture absorbed [2]: over 8 wt %

Molecule: sulfasalazine diethylamine (1:1) salt [Diethylamine Salt]
- DVS mass uptake [4]: 1.0%
- Salt disproportionation, XRPD [5]: Small change
- Hydration studies, XRPD ([6]; High water activity (0.790)): no solid could be obtained
- Hydration studies, XRPD ([6]; Low water activity (0.281)): slight changes; also recorded: Small change
- Hydration studies, XRPD ([6]; Medium water activity (0.572)): slight changes; also recorded: Small change
- % Change [7, 12]: 0.11%
- Area % (main band) [7, 12]: 98.97%
- % Change [7, 13]: −0.02%
- Area % (main band) [7, 13]: 99.10%
- degradation observed ([7]; Hydrolytic (humidity), 75% RH, 55° C., 14 days): Minimal degradation
- Peak Purity ([7]; Hydrolytic (humidity), 14 days): Pass
- % Change [7, 14]: −0.19%
- Area % (main band) [7, 14]: 99.03%
- % Change [7, 15]: −0.25%
- Area % (main band) [7, 15]: 98.93%
- degradation observed [7, 15]: Minimal degradation
- Peak Purity ([7]; Hydrolytic, Acid, 14 days): Pass
- % Change [7, 16]: −0.19%
- Area % (main band) [7, 16]: 99.03%
- % Change [7, 17]: −0.25%
- Area % (main band) [7, 17]: 98.93%
- degradation observed [7, 17]: Minimal degradation
- Peak Purity ([7]; Hydrolytic, Base, 14 days): Pass
- % Change [7, 18]: 1.36%
- Area % (main band) [7, 18]: 97.52%
- Area % (main band) ([7]; Oxidative, 3% H2O2, ambient temperature, 14 days): 97.30%
- Peak Purity ([7]; Oxidative, 14 days): Pass
- % Change [7, 19]: −0.05%
- Area % (main band) [7, 19]: 99.13%
- % Change [7, 20]: −0.05%
- Area % (main band) [7, 20]: 99.13%
- Peak Purity ([7]; Photolytic, 3X ICH): Pass
- degradation observed ([7]; Photolytic, 3× ICH exposure): Minimal degradation
- % Change [7, 21]: 0.42%
- Area % (main band) [7, 21]: 98.71%
- % Change [7, 22]: 0.10%
- Area % (main band) [7, 22]: 99.03%
- Area % (main band) ([7]; Solid Control (unstressed), 0 days): 99.08%
- % Change [7, 23]: 0.24%
- Area % (main band) [7, 23]: 98.84%
- % Change [7, 24]: 0.39%
- Area % (main band) [7, 24]: 98.69%
- % Change [7, 25]: 0.20%
- Area % (main band) [7, 25]: 98.88%
- % Change [7, 26]: 0.20%
- Area % (main band) [7, 26]: 98.88%
- degradation observed ([7]; Thermolytic, 80° C., 14 days): Minimal degradation
- % Change [7, 27]: 0.12%
- Area % (main band) [7, 27]: 98.96%
- % Change [7, 28]: 0.05%
- Area % (main band) [7, 28]: 99.03%
- Peak Purity ([7]; Thermolytic, 14 days): Pass
